Experimental data: patent publication US11472803B2, “7-substituted 1-aryl-naphthyridine-3-carboxylic acid amides and use thereof” (Bayer Aktiengesellschaft, priority 2016, dated 2022)

Molecular target: T1, human M2 receptor (Homo sapiens, UniProt P08172)
T1 construct: expressed in transfected cells; host or cells: CHO-DUKX (CHO-DUKX-M2-GIRK)
T1 sequence (P08172 1-466): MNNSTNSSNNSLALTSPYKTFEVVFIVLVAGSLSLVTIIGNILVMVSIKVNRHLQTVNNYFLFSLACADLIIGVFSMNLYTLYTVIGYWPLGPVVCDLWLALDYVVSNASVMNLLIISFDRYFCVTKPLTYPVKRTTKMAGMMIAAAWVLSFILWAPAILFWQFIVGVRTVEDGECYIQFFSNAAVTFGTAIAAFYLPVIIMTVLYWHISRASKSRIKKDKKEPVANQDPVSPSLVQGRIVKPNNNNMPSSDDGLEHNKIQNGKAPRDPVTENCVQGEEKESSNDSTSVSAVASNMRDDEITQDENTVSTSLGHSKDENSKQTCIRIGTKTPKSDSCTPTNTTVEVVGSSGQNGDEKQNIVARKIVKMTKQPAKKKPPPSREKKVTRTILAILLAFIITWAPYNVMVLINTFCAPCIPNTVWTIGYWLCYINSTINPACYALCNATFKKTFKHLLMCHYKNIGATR
Assay: Functional M2-GIRK1/4 activation test: allosteric potency (EC50) and efficiency at EC20 acetylcholine
Type: cell-based
Conditions: CHO-DUKX-M2-GIRK cells; for EC50: voltage-sensitive dye, acetylcholine at EC20, in some cases mean of two or more determinations; for Emax / Efficiency: boosting of the acetylcholine effect at EC20 acetylcholine concentration
Summary of the method: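 CHO-DUKX cells stably expressing human M2 and GIRK1/4; membrane potential tracked with voltage-sensitive dye at room temperature. Compound added 50 s before acetylcholine at its EC20, then hyperpolarization read 60 s. EC50 (allosteric potency) and efficiency (boost of EC20 ACh effect) from 4-parameter Hill fit.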

## Cc1cc(F)cc(C)c1-n1cc(C(=O)N[C@H](C2CC2)C(F)(F)F)c(=O)c2cc(F)c(N3C[C@@H](O)CC3=O)nc21 [Example 177, N-[(1R)-1-Cyclopropyl-2,2,2-trifluoroethyl]-6-fluoro-1-(4-fluoro-2,6-dimethylphenyl)-7-[(4S)-4-hydroxy-2-oxopyrrolidin-1-yl]-4-oxo-1,4-dihydro-1,8-naphthyridine-3-carboxamide]
  EC50: 530 nM
  Emax: 77%

## O=C(NC(C(F)(F)F)C(F)(F)F)c1cn(-c2c(F)cc(F)cc2F)c2nc(N3CCC(O)(CO)CC3)c(F)cc2c1=O [Example 189, 6-Fluoro-N-(1,1,1,3,3,3-hexafluoropropan-2-yl)-7-[4-hydroxy-4-(hydroxymethyl)piperidin-1-yl]-4-oxo-1-(2,4,6-trifluorophenyl)-1,4-dihydro-1,8-naphthyridine-3-carboxamide]
  EC50: 30 nM
  Emax: 100%

## CC(C)(NC(=O)c1cn(-c2c(F)cc(F)cc2F)c2nc(N3CCOCC3)c(F)cc2c1=O)C(F)F [Example 150, N-(1,1-Difluoro-2-methylpropan-2-yl)-6-fluoro-7-(morpholin-4-yl)-4-oxo-1-(2,4,6-trifluoro-phenyl)-1,4-dihydro-1,8-naphthyridine-3-carboxamide]
  EC50: 24 nM
  Emax: 93%

## CCC(COC(F)(F)F)NC(=O)c1cn(-c2c(F)cc(F)cc2F)c2nc(N3C[C@@H](O)[C@@H](O)C3)c(F)cc2c1=O (single isomer, unassigned) [Example 97]
  EC50: 13 nM
  Efficiency: 97%

## CCC(NC(=O)c1cn(-c2c(F)cc(F)cc2F)c2nc(N3C[C@@H](O)[C@@H](O)C3)c(F)cc2c1=O)C(C)C (mixture of isomers) [Example 104, 7-[(3R,4S)-3,4-Dihydroxypyrrolidin-1-yl]-6-fluoro-N-[2-methylpentan-3-yl]-6-fluoro-4-oxo-1-(2,4,6-trifluorophenyl)-1,4-dihydro-1,8-naphthyridine-3-carboxamide]
  EC50: 13 nM
  Emax: 97%

## CC(C)C(NC(=O)c1cn(-c2c(F)cc(F)cc2F)c2nc(N3C[C@@H](O)[C@@H](O)C3)c(F)cc2c1=O)C(F)(F)F (single isomer, unassigned) [Example 138]
  EC50: 7.6 nM
  Efficiency: 84%

## CCC(C)(C)NC(=O)c1cn(-c2c(F)cc(F)cc2F)c2nc(N3C[C@@H](O)[C@@H](O)C3)c(F)cc2c1=O [Example 79, 7-[(3R,4S)-3,4-Dihydroxypyrrolidin-1-yl]-6-fluoro-N-(2-methylbutan-2-yl)-4-oxo-1-(2,4,6-tri-fluorophenyl)-1,4-dihydro-1,8-naphthyridine-3-carboxamide]
  EC50: 9.3 nM
  Emax: 99%

## CCC(COC(F)(F)F)NC(=O)c1cn(-c2c(F)cc(F)cc2F)c2nc(N3CC[C@H](O)C3)c(F)cc2c1=O (mixture of isomers) [Example 109, 6-Fluoro-7-[(3S)-3-hydroxypyrrolidin-1-yl]-4-oxo-N-[1-(trifluoromethoxy)butan-2-yl]-1-(2,4,6-trifluorophenyl)-1,4-dihydro-1,8-naphthyridine-3-carboxamide]
  EC50: 7.7 nM
  Emax: 100%

## CCC(COC(F)(F)F)NC(=O)c1cn(-c2c(F)cc(F)cc2F)c2nc(N3C[C@@H](O)[C@@H](O)C3)c(F)cc2c1=O (mixture of isomers) [Example 95, 7-[(3R,4S)-3,4-Dihydroxypyrrolidin-1-yl]-6-fluoro-4-oxo-N-[1-(trifluoromethoxy)butan-2-yl]-1-(2,4,6-trifluorophenyl)-1,4-dihydro-1,8-naphthyridine-3-carboxamide]
  EC50: 15.5 nM
  Emax: 100%

## CCN(CC(C)O)c1nc2c(cc1F)c(=O)c(C(=O)N[C@@H](C1CC1)C(F)(F)F)cn2-c1c(F)cc(F)cc1F (single isomer, unassigned) [Example 66]
  EC50: 35 nM
  Emax: 92%

## O=C(NCC(F)(F)F)c1cn(-c2c(F)cc(F)cc2Cl)c2nc(N3C[C@@H](O)[C@H](O)C3)c(F)cc2c1=O (single isomer, unassigned) [Example 222]
  EC50: 550 nM
  Efficiency: 61%

## CC(C)C(NC(=O)c1cn(-c2c(F)cc(F)cc2F)c2nc(N3CC[C@H](O)C3)c(F)cc2c1=O)C(F)(F)F (single isomer, unassigned) [Example 140]
  EC50: 5.3 nM
  Efficiency: 95%

## CC(C)(NC(=O)c1cn(-c2c(F)cc(F)cc2Cl)c2nc(N3C[C@@H](O)[C@H](O)C3)c(F)cc2c1=O)C(F)(F)F (single isomer, unassigned) [Example 49]
  EC50: 68 nM
  Emax: 74%

## O=C(N[C@@H](C1CC1)C(F)(F)F)c1cn(-c2c(F)cc(F)cc2F)c2nc(N3C[C@@H](O)CC3=O)c(F)cc2c1=O [Example 59, N-[(1S)-1-Cyclopropyl-2,2,2-trifluoroethyl]-6-fluoro-7-[(4S)-4-hydroxy-2-oxopyrrolidin-1-yl]-4-oxo-1-(2,4,6-trifluorophenyl)-1,4-dihydro-1,8-naphthyridine-3-carboxamide]
  EC50: 91.5 nM
  Emax: 97%

## CC[C@H](NC(=O)c1cn(-c2c(F)cc(F)cc2Cl)c2nc(N3C[C@@H](O)[C@H](O)C3)c(F)cc2c1=O)C(F)(F)F (single isomer, unassigned) [Example 47]
  EC50: 48 nM
  Emax: 81%

## C[C@H](O)CN(C)c1nc2c(cc1F)c(=O)c(C(=O)N[C@@H](C1CC1)C(F)(F)F)cn2-c1c(F)cc(F)cc1F [Example 64, N-[(1S)-1-Cyclopropyl-2,2,2-trifluoroethyl]-6-fluoro-7-{[(2S)-2-hydroxypropyl](methyl)amino}-4-oxo-1-(2,4,6-trifluorophenyl)-1,4-dihydro-1,8-naphthyridine-3-carboxamide]
  EC50: 12 nM
  Emax: 96%

## C[C@H](NC(=O)c1cn(-c2c(F)cc(F)cc2Cl)c2nc(N3C[C@@H](O)[C@H](O)C3)c(F)cc2c1=O)C(F)(F)F [Example 224, 1-(2-Chloro-4,6-difluorophenyl)-7-[(3R,4R)-3,4-dihydroxypyrrolidin-1-yl]-6-fluoro-4-oxo-N-[(2S)-1,1,1-trifluoropropan-2-yl]-1,4-dihydro-1,8-naphthyridine-3-carboxamide]
  EC50: 10 nM
  Emax: 96%

## CC(C)(CC(F)(F)F)NC(=O)c1cn(-c2c(F)cc(F)cc2F)c2nc(N3C[C@@H](O)[C@@H](O)C3)c(F)cc2c1=O [Example 91, 7-[(3R,4S)-3,4-Dihydroxypyrrolidin-1-yl]-6-fluoro-4-oxo-N-(4,4,4-trifluoro-2-methylbutan-2-yl)-1-(2,4,6-trifluorophenyl)-1,4-dihydro-1,8-naphthyridine-3-carboxamide]
  EC50: 6.5 nM
  Emax: 100%

## CC(NC(=O)c1cn(-c2ncc(F)cc2F)c2nc(N3C[C@@H](O)[C@H](O)C3)c(F)cc2c1=O)C(F)(F)C(F)(F)F (mixture of isomers) [Example 39, 1-(3,5-difluoropyridin-2-yl)-7-[(3R,4R)-3,4-dihydroxypyrrolidin-1-yl]-6-fluoro-4-oxo-N-[(2)-3,3,4,4,4-pentafluorobutan-2-yl]-1,4-dihydro-1,8-naphthyridine-3-carboxamide]
  EC50: 20.5 nM
  Emax: 100%

## C[C@@H](NC(=O)c1cn(-c2c(F)cc(F)cc2Cl)c2nc(N3C[C@@H](O)[C@H](O)C3)c(F)cc2c1=O)C(F)(F)F (single isomer, unassigned) [Example 229]
  EC50: 260 nM
  Efficiency: 67%
